Reference: PubChem BioAssay AID2060483 (Molecular Pharmacology Branch, DTP, NCI, 2025)

Test system: K24384-001-R-PDC complex spheroids, viability
Assay: Anticancer human tumor K24384-001-R-PDC patient-derived pancreatic adenocarcinoma cell line growth inhibition [GQUAD]
Conditions: for IC50: curve of first compound; for viability, T/C: stronger effect = lower value
Method in brief: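 Viability of tumor cells grown as complex spheroids with endothelial and stromal cells, exposed to drug combinations. Top concentration at or near clinical Cmax (else 10 microM), diluted in half-log increments.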

[1] = second compound 0.0316 µM, first compound 0.0316 µM
[2] = second compound 0.0316 µM, first compound 0.1 µM
[3] = second compound 0.0316 µM, first compound 0.316 µM
[4] = second compound 0.0316 µM, first compound 1 µM
[5] = second compound 0.0316 µM, first compound 3.16 µM
[6] = second compound 0.0316 µM, first compound 10 µM
[7] = second compound 0.1 µM, first compound 0.0316 µM
[8] = second compound 0.1 µM, first compound 0.1 µM
[9] = second compound 0.1 µM, first compound 0.316 µM
[10] = second compound 0.1 µM, first compound 1 µM
[11] = second compound 0.1 µM, first compound 3.16 µM
[12] = second compound 0.1 µM, first compound 10 µM
[13] = second compound 0.316 µM, first compound 0.0316 µM
[14] = second compound 0.316 µM, first compound 0.1 µM
[15] = second compound 0.316 µM, first compound 0.316 µM
[16] = second compound 0.316 µM, first compound 1 µM
[17] = second compound 0.316 µM, first compound 3.16 µM
[18] = second compound 0.316 µM, first compound 10 µM
[19] = second compound 1 µM, first compound 0.0316 µM
[20] = second compound 1 µM, first compound 0.1 µM
[21] = second compound 1 µM, first compound 0.316 µM
[22] = second compound 1 µM, first compound 1 µM
[23] = second compound 1 µM, first compound 3.16 µM
[24] = second compound 1 µM, first compound 10 µM
[25] = second compound 3.16 µM, first compound 0.0316 µM
[26] = second compound 3.16 µM, first compound 0.1 µM
[27] = second compound 3.16 µM, first compound 0.316 µM
[28] = second compound 3.16 µM, first compound 1 µM
[29] = second compound 3.16 µM, first compound 3.16 µM
[30] = second compound 3.16 µM, first compound 10 µM
[31] = second compound 10 µM, first compound 0.0316 µM
[32] = second compound 10 µM, first compound 0.1 µM
[33] = second compound 10 µM, first compound 0.316 µM
[34] = second compound 10 µM, first compound 1 µM
[35] = second compound 10 µM, first compound 3.16 µM
[36] = second compound 10 µM, first compound 10 µM
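Further: spheroids exposed to compounds for seven days.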

Question: Which IC50 (second compound 0.0316 µM) does the source give for CCCS(=O)(=O)Nc1ccc(F)c(C(=O)c2c[nH]c3ncc(-c4ccc(Cl)cc4)cc23)c1F + Cc1cnc(CNC(=O)c2c(=O)c3ccc(N4CCCN(C)CC4)nc3n3c2sc2ccccc23)cn1 here?
Answer: 8050 nM

Question: And the IC50 (second compound 0.1 µM)?
Answer: 6380 nM

Question: What about the IC50 (second compound 0.316 µM) of the same compound?
Answer: > 10000 nM

Question: And the IC50 (second compound 1 µM)?
Answer: < 31.6 nM

Question: What about the IC50 (second compound 3.16 µM) of the same compound?
Answer: < 31.6 nM

Question: And the IC50 (second compound 10 µM)?
Answer: < 31.6 nM

Question: And the viability, T/C [1]?
Answer: 78%

Question: What about the viability, T/C [2] of the same compound?
Answer: 84.4%

Question: And the viability, T/C [3]?
Answer: 113%

Question: And the viability, T/C [4]?
Answer: 93.8%

Question: What about the viability, T/C [5] of the same compound?
Answer: 105%

Question: What about the viability, T/C [6] of the same compound?
Answer: 39.5%

Question: What about the viability, T/C [7] of the same compound?
Answer: 50.8%

Question: What about the viability, T/C [8] of the same compound?
Answer: 84.2%

Question: What about the viability, T/C [9] of the same compound?
Answer: 63.4%

Question: What about the viability, T/C [10] of the same compound?
Answer: 90.9%

Question: What about the viability, T/C [11] of the same compound?
Answer: 90.6%

Question: What about the viability, T/C [12] of the same compound?
Answer: 33.5%

Question: What about the viability, T/C [13] of the same compound?
Answer: 48.5%

Question: And the viability, T/C [14]?
Answer: 56.8%

Question: What about the viability, T/C [15] of the same compound?
Answer: 62%

Question: And the viability, T/C [16]?
Answer: 64.8%

Question: What about the viability, T/C [17] of the same compound?
Answer: 65.9%

Question: What about the viability, T/C [18] of the same compound?
Answer: 31.1%

Question: What about the viability, T/C [19] of the same compound?
Answer: 37.2%

Question: What about the viability, T/C [20] of the same compound?
Answer: 36%

Question: And the viability, T/C [21]?
Answer: 33.6%

Question: And the viability, T/C [22]?
Answer: 48.3%

Question: What about the viability, T/C [23] of the same compound?
Answer: 60.2%

Question: And the viability, T/C [24]?
Answer: 29%

Question: What about the viability, T/C [25] of the same compound?
Answer: 39.4%

Question: And the viability, T/C [26]?
Answer: 35.2%

Question: And the viability, T/C [27]?
Answer: 37.1%

Question: What about the viability, T/C [28] of the same compound?
Answer: 34.6%

Question: And the viability, T/C [29]?
Answer: 39.5%

Question: What about the viability, T/C [30] of the same compound?
Answer: 16.2%

Question: And the viability, T/C [31]?
Answer: 0.22%

Question: What about the viability, T/C [32] of the same compound?
Answer: 0.41%

Question: And the viability, T/C [33]?
Answer: 0.78%

Question: What about the viability, T/C [34] of the same compound?
Answer: 0.33%

Question: What about the viability, T/C [35] of the same compound?
Answer: 0.23%

Question: And the viability, T/C [36]?
Answer: 0.18%

Question: With COc1cc(C2c3cc4c(cc3C(OC3OC5COC(C)OC5C(O)C3O)C3COC(=O)C23)OCO4)cc(OC)c1O (stereo unspecified) + Cc1cnc(CNC(=O)c2c(=O)c3ccc(N4CCCN(C)CC4)nc3n3c2sc2ccccc23)cn1 as the compound, how does the IC50 (second compound 0.0316 µM) read?
Answer: 865 nM

Question: And the IC50 (second compound 0.1 µM)?
Answer: 2380 nM

Question: What about the IC50 (second compound 0.316 µM) of the same compound?
Answer: 31.6 nM

Question: What about the IC50 (second compound 1 µM) of the same compound?
Answer: < 31.6 nM

Question: And the IC50 (second compound 3.16 µM)?
Answer: < 31.6 nM

Question: What about the IC50 (second compound 10 µM) of the same compound?
Answer: < 31.6 nM

Question: What about the viability, T/C [1] of the same compound?
Answer: 79.9%

Question: And the viability, T/C [2]?
Answer: 71.2%

Question: What about the viability, T/C [3] of the same compound?
Answer: 99.5%

Question: And the viability, T/C [4]?
Answer: 45.1%

Question: What about the viability, T/C [5] of the same compound?
Answer: 45.3%

Question: What about the viability, T/C [6] of the same compound?
Answer: 25.9%

Question: And the viability, T/C [7]?
Answer: 62.1%

Question: What about the viability, T/C [8] of the same compound?
Answer: 68.8%

Question: What about the viability, T/C [9] of the same compound?
Answer: 61.3%

Question: What about the viability, T/C [10] of the same compound?
Answer: 57.5%

Question: What about the viability, T/C [11] of the same compound?
Answer: 47.8%

Question: And the viability, T/C [12]?
Answer: 34.1%

Question: What about the viability, T/C [13] of the same compound?
Answer: 46.1%

Question: What about the viability, T/C [14] of the same compound?
Answer: 51.4%

Question: What about the viability, T/C [15] of the same compound?
Answer: 46%

Question: What about the viability, T/C [16] of the same compound?
Answer: 46.4%

Question: And the viability, T/C [17]?
Answer: 52.4%

Question: And the viability, T/C [18]?
Answer: 34.8%

Question: And the viability, T/C [19]?
Answer: 35.1%

Question: And the viability, T/C [20]?
Answer: 49.1%

Question: And the viability, T/C [21]?
Answer: 38.1%

Question: And the viability, T/C [22]?
Answer: 46%

Question: What about the viability, T/C [23] of the same compound?
Answer: 43.4%

Question: And the viability, T/C [24]?
Answer: 30.8%

Question: And the viability, T/C [25]?
Answer: 36.3%

Question: What about the viability, T/C [26] of the same compound?
Answer: 44.9%

Question: What about the viability, T/C [27] of the same compound?
Answer: 41.2%

Question: What about the viability, T/C [28] of the same compound?
Answer: 47.1%

Question: And the viability, T/C [29]?
Answer: 39%

Question: And the viability, T/C [30]?
Answer: 26%

Question: And the viability, T/C [31]?
Answer: 30.4%

Question: What about the viability, T/C [32] of the same compound?
Answer: 28.1%

Question: What about the viability, T/C [33] of the same compound?
Answer: 32.3%

Question: And the viability, T/C [34]?
Answer: 33%

Question: And the viability, T/C [35]?
Answer: 10.4%

Question: What about the viability, T/C [36] of the same compound?
Answer: 0.63%

Question: For CC1COCCN1c1cc(C2(O)CC3CCC(C2)O3)c2cnn(-c3ccn[nH]3)c2n1 (stereo unspecified) + CN(C)c1ccc(Nc2c3ccc(NC(=O)CCN4CCCC4)cc3nc3cc(NC(=O)CCN4CCCC4)ccc23)cc1, which IC50 (second compound 0.0316 µM) is on record?
Answer: 103 nM

Question: And the IC50 (second compound 0.1 µM)?
Answer: 74.6 nM

Question: What about the IC50 (second compound 0.316 µM) of the same compound?
Answer: 74.3 nM

Question: What about the IC50 (second compound 1 µM) of the same compound?
Answer: 68.6 nM

Question: And the IC50 (second compound 3.16 µM)?
Answer: 61.6 nM

Question: And the IC50 (second compound 10 µM)?
Answer: 119 nM

Question: What about the viability, T/C [1] of the same compound?
Answer: 56.5%

Question: What about the viability, T/C [2] of the same compound?
Answer: 52%

Question: And the viability, T/C [3]?
Answer: 33.5%

Question: And the viability, T/C [4]?
Answer: 23.8%

Question: And the viability, T/C [5]?
Answer: 25.4%

Question: What about the viability, T/C [6] of the same compound?
Answer: 14.3%

Question: What about the viability, T/C [7] of the same compound?
Answer: 68%

Question: And the viability, T/C [8]?
Answer: 43.9%

Question: What about the viability, T/C [9] of the same compound?
Answer: 29.6%

Question: What about the viability, T/C [10] of the same compound?
Answer: 25.1%

Question: And the viability, T/C [11]?
Answer: 26.6%

Question: And the viability, T/C [12]?
Answer: 15%

Question: And the viability, T/C [13]?
Answer: 70.3%

Question: What about the viability, T/C [14] of the same compound?
Answer: 44%

Question: And the viability, T/C [15]?
Answer: 24.6%

Question: What about the viability, T/C [16] of the same compound?
Answer: 26%

Question: What about the viability, T/C [17] of the same compound?
Answer: 27.2%

Question: What about the viability, T/C [18] of the same compound?
Answer: 14.1%

Question: And the viability, T/C [19]?
Answer: 62.8%

Question: And the viability, T/C [20]?
Answer: 45%

Question: What about the viability, T/C [21] of the same compound?
Answer: 27.1%

Question: And the viability, T/C [22]?
Answer: 27.7%

Question: What about the viability, T/C [23] of the same compound?
Answer: 27.3%

Question: What about the viability, T/C [24] of the same compound?
Answer: 13.3%

Question: And the viability, T/C [25]?
Answer: 63.2%

Question: And the viability, T/C [26]?
Answer: 40.5%

Question: What about the viability, T/C [27] of the same compound?
Answer: 24.9%

Question: What about the viability, T/C [28] of the same compound?
Answer: 27.9%

Question: What about the viability, T/C [29] of the same compound?
Answer: 24.9%

Question: And the viability, T/C [30]?
Answer: 12.9%

Question: And the viability, T/C [31]?
Answer: 76.2%

Question: What about the viability, T/C [32] of the same compound?
Answer: 48.5%

Question: What about the viability, T/C [33] of the same compound?
Answer: 35.7%

Question: What about the viability, T/C [34] of the same compound?
Answer: 32.5%

Question: And the viability, T/C [35]?
Answer: 25.4%

Question: And the viability, T/C [36]?
Answer: 12.3%
